In PMC3855825 (Molecular and biochemical parasitology, 2012):
pIC50, pKi: −log10 of the molar value. Entries after “also recorded” stand apart in the source; their conditions may differ. Like-named read-outs stand apart in the source and are kept apart here.

Legend:
[1] = molecular target: T1, TgDHOD-VSSM (Toxoplasma gondii, UniProt Q8MXD1); test: Use of electron acceptors and substrate kinetics of TgDHOD-VSSM
T1 sequence (Q8MXD1 178-592): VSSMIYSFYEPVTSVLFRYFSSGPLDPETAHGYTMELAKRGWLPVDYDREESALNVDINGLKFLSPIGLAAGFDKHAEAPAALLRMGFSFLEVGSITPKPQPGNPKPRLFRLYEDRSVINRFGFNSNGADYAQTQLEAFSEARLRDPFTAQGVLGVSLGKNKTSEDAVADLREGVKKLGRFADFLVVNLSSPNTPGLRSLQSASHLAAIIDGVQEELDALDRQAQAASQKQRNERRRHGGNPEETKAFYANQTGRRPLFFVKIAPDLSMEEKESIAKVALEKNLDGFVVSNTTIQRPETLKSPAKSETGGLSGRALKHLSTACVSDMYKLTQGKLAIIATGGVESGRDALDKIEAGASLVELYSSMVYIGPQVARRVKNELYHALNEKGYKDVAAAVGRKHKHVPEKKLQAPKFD

[2] = test system: PfDHOD; settings: read-out: PfDHOD IC50, cited from earlier work
[3] = test system: HsDHOD; settings: read-out: HsDHOD IC50, cited from earlier work
[4] = molecular target: TgDHOD (Toxoplasma gondii, UniProt Q8MXD1); test: Inhibition of recombinant TgDHOD-VSSM, DCIP reduction assay with QD; settings: for Effect on TgDHOD activity (in words): no concentration stated at the place; for Type of inhibition of TgDHOD (best fit): QD as variable substrate, saturating dihydroorotate, SigmaPlot12 fit; for Inhibition of TgDHOD (in words): inhibitor 1 mM, DCIP reduction assay with QD
[5] = test system: PfDHOD; settings: read-out: Km for quinone, recombinant PfDHOD; cited from earlier work
[6] = test system: HsDHOD; settings: read-out: Km for QD, HsDHOD; cited from earlier work
[7] = test system: Saccharomyces cerevisiae complex III; settings: read-out: IC50 for Saccharomyces cerevisiae complex III; cited from earlier work
[8] = test system: human complex III; settings: read-out: IC50 for human complex III; cited from earlier work
[9] = read-out: TgDHOD activity compared to the control

With O=C1C(Cl)=CC(=Nc2ccc(O)cc2)C=C1Cl [DCIP, 2,6 dichlorophenol-indophenol] the “kcat, background activity in the absence of ubiquinone” value ([1]; DCIP as only electron acceptor, 0.1 mM, 1 mM dihydroorotate) was 28.1 ± 0.7 s⁻¹.

For Cc1cc(Nc2cc(F)c(C(F)(F)F)c(F)c2)n2ncnc2n1 [DSM190, N-(3,5-difluoro-4-(trifluoromethyl)phenyl)-5-methyl-[1,2,4]triazolo[1,5-a]pyrimidin-7-amine], the pIC50 ([2]; ref 16 Gujjar et al., 2011) is given as 6.72, the pIC50 ([3]; ref 16 Gujjar et al., 2011) is given as under 4.52 and the “Effect on TgDHOD activity (in words)” value [4] is given as “poor inhibitor”.

In the case of O=C(O)/C=C/C(=O)O [Fumarate], the “Activity as electron acceptor for TgDHOD (in words)” value [1] was “poor electron acceptor; also recorded: negligible activity”.

In the case of COc1ccccc1-c1ccc(NC(=O)C(C#N)=C(C)O)c(Cl)c1 [MD209, N-(3-chloro-2′-methoxybiphenyl-4-yl)-2-cyano-3-hydroxybut-2-enamide], the pIC50 ([2]; ref 17 Davies et al., 2009) is listed as 5.07, the pIC50 ([3]; ref 17 Davies et al., 2009) is listed as 6.70 and the pKi [4] is listed as 4.74. The “Type of inhibition of TgDHOD (best fit)” value [4] was “partial mixed inhibition”.

For CC(O)=C(C#N)C(=O)Nc1ccc(-c2cccc(Cl)c2Cl)cc1Cl [MD249], the pIC50 ([2]; ref 17 Davies et al., 2009) is given as 5.00, the pIC50 ([3]; ref 17 Davies et al., 2009) is given as 6.48 and the “Type of inhibition of TgDHOD (best fit)” value [4] is given as “partial mixed inhibition”.

In the case of CC1=CC(=O)c2ccccc2C1=O [Menadione, 2-methyl-1,4-naphthoquinone], the Km [5] is given as 55 to 115 µM.

For COC1=C(OC)C(=O)C(C)=CC1=O [Q0, 2,3-dimethoxy-5-methyl-1,4-benzoquinone], the Km [5] is given as 55 to 115 µM.

In the case of CCCCCCCCCCC1=C(C)C(=O)C(OC)=C(OC)C1=O [QD, 2,3-dimethoxy-5-methyl-6-decyl-1,4-benzoquinone], the Km [6] is given as 14 µM.

For O=C(CC(=O)C(F)(F)F)c1cccs1 [TTFA, 4,4,4-trifluoro-1-(thienyl)-1,3-butanedione], the “Inhibition of TgDHOD (in words)” value [4] was “No significant inhibition” and the “Effect on TgDHOD activity (in words)” value [4] was “not significantly affected; also recorded: no effect”.

In the case of O=C1C(O)=C([C@H]2CC[C@H](c3ccc(Cl)cc3)CC2)C(=O)c2ccccc21 [atovaquone, trans-2-[4-(chlorophenyl)cyclohexyl]-3-hydroxy-1,4-naphthoquinone], the pIC50 [7] is given as 7.40, the pIC50 [8] is given as 6.40 and the “Effect on TgDHOD activity (in words)” value [4] is given as “not significantly affected”. For the same compound, the “Effect on TgDHOD activity (in words)” value ([4]; listed as Atovaquone) was “little effect” and the remaining activity at 100 µM [4, 9] was 80.6%.

In the case of Cc1c(-c2ccc(-c3ccccc3F)cc2)nc2ccc(F)cc2c1C(=O)O [brequinar, 6-fluoro-2-(2′-fluoro-1,1-biphenyl-4-yl)-3-methyl-4-quinoline carboxylic acid], the “Inhibition of TgDHOD (in words)” value [4] was “No significant inhibition” and the “Effect on TgDHOD activity (in words)” value [4] was “not significantly affected; also recorded: not efficient inhibitors”.

For COc1cc(-c2ccc(Nc3ccccc3C(=O)O)c(OC)c2)ccc1Nc1ccccc1C(=O)O [redoxal, (2,2′-[3,3′-dimethoxy[1,1′-biphenyl]-4,4′-diyl]diimino)bis-benzoic acid], the “Effect on TgDHOD activity (in words)” value [4] was “not efficient inhibitors”.

In the case of Cc1cc(-n2c(=O)[nH]c(=O)n(C)c2=O)ccc1Oc1ccc(SC(F)(F)F)cc1 [toltrazuril, 1-(3-methyl-4(4′-trifluoromethylthiophenoxy)phenyl)-3-methyl-1,3,5-triazine-2,4,6-(1H,3H,5H)-trione], the “Effect on TgDHOD activity (in words)” value [4] was “little effect” and the remaining activity at 500 µM [4, 9] was 82.9%.
